The source of these data is patent US20070087346A1, “Orthogonal gene switches” (priority 2003, published 2007).

For one test, the target named is T1, HEA-1 (Homo sapiens, UniProt P03372, G521R).
T1 sequence (P03372 303-595 G521R): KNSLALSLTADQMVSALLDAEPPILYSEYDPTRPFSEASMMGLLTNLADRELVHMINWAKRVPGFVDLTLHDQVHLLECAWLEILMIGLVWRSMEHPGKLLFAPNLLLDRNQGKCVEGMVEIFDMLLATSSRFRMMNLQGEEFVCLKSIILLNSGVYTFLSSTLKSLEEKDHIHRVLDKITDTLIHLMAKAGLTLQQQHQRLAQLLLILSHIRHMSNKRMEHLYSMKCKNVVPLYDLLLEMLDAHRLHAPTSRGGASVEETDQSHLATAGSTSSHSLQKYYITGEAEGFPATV
The conditions noted are these: cell culture; Roscilli et al., 2002; cited from earlier work.

The next test concerns the target T2, GST-ERα wt-LBD (Homo sapiens, UniProt P03372).
T2 construct: made in house; host or cells: E. coli BL21 (CodonPlus DE3-RIL)
T2 sequence (P03372 303-595): T1 sequence (P03372 303-595 G521R) with R219G
The test is described as follows: competitive radiometric 3[H]E2 displacement binding assay, wt LBD. The protocol:
Microplates (Basic Flashplates, NEN) wells were coated for 12 hrs at 4° C. with 100 μl of PBS containing anti-GST antibodies (Amersham) at a concentration of 5 μg/ml. After washing three times with 200 μl of PBS, the background was reduced by saturating with 200 μl of PBS containing 1% BSA for 3 hrs at 4° C. Wells were then washed three times with 200 μl of lysis buffer containing 0.1 M NaCl and 0.2% n-Dodecyl BD-maltoside (assay buffer).
Suitable amounts of crude E. coli supernatants containing the GST-ER LBD proteins (2-10 μl) or of purified polypeptides (8 nM) were bound to the anti-GST antibody-coated wells for 1 hr at 23° C. in 200 μl of the assay buffer with constant agitation. After three more washes with 200 μl of the same buffer, the ligand-binding reaction was set up in 195 μl of assay buffer containing 2 nM-10 nM 3[H]E2 and 5 μl of DMSO or of suitable dilutions of the test compounds in DMSO. Incubation was for 2 hrs at 23° C. with constant shaking, followed by SPA radioactivity measurement using a microplate scintillation and luminescence counter (Top Count NXT, Packard). IC50 values were obtained by multiparameter logistic fitting of the experimental data with the aid of a Kaleidagraph software.

Another test concerns the target hERβ (Homo sapiens, UniProt Q92731). As to the kind of experiment: binding to full-length hERβ. The conditions noted are these: full-length receptor.
The test system of test [1] is MG-LBD variant with Gly521 substituted with Val, Leu, Met, or Arg. The test is described as follows: β-Galactosidase transcription assay in yeast, Gly521 substitutions in MG-LBD. The format is cell-based, human. The conditions noted are these: data not shown.
The target in another test is T3, hERα (Homo sapiens, UniProt P03372).
T3 construct: relative to the wt LBD and to both α and β full-length ER
T3 sequence (P03372 1-595): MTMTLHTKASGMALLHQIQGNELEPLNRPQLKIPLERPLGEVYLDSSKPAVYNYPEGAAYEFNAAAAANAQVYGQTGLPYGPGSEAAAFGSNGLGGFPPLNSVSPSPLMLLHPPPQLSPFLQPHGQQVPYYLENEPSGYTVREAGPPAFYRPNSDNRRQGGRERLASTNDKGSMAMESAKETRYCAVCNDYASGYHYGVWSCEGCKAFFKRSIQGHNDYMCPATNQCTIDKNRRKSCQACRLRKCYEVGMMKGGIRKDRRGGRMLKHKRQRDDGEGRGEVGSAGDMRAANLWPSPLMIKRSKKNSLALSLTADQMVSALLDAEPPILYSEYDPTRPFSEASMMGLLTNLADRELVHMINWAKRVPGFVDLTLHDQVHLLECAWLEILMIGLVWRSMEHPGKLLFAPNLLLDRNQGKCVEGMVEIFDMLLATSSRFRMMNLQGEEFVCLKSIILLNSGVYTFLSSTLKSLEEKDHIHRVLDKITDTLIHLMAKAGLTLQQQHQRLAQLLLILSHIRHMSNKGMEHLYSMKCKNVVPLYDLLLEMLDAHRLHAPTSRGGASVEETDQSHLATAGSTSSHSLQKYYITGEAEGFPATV
As to the kind of experiment: binding to full-length hERα.

[2] abbreviates: 3[H]E2 displacement, read-out: GST-ERα wt-LBD IC50.
[3] abbreviates: full-length receptor, read-out: hERα IC50.

Positions count from the first letter of the chain named. Counter-ions that a name gives are not always drawn. Like-named read-outs stand apart in the source and are kept apart here. Where only a bound is given, the exact number is not on record here.

hERβ, sequence (Q92731 whole entry, the tested form may be a part): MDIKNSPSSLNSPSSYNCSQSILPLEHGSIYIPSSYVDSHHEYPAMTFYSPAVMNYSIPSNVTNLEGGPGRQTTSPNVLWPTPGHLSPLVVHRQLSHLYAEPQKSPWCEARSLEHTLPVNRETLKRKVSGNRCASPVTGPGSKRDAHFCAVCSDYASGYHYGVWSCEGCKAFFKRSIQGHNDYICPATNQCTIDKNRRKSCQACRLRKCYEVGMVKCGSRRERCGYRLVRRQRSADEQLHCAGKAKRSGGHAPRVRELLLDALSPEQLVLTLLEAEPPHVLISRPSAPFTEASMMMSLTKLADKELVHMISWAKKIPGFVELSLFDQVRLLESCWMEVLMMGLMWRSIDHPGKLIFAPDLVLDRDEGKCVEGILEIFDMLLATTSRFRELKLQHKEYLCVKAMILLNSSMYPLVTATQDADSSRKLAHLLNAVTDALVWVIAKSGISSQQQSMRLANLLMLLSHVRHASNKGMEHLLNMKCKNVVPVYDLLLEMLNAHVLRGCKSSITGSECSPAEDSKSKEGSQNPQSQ

As for 4 hydroxytamoxifen [4-OH Tam], the drug-dependent transgene induction result on HEA-1 is given as “up to hundred-fold”.

For the compound `CC1=C2c3ccc(O)cc3CC2(Cc2ccccc2)CCC1=O` (stereo not shown) [CMP4, 9a-benzyl-7-hy-droxy-4-methyl-1,2,9,9a-tetra-hydro-3H-fluor-en-3-one], the figures for the half-maximal inhibitory concentration (IC50) on GST-ERα wt-LBD (setting [2]), at hERβ and at hERα were 2320 nM, 506 nM and 1470 nM, respectively. In addition, the “response (trans-activation in yeast)” value in test [1] was “dramatic loss of response”.

As for `CC1=C2c3ccc4[nH]ncc4c3CC2(Cc2ccccc2)CCC1=O` (stereo not shown) [CMP5, 6-methyl-9a-ben-zyl-8,9,9a,10-tetra-hydroindeno[2,1-e]in-dazol-7(3H)-one], the values for the IC50 on GST-ERα wt-LBD (setting [2]), on hERβ and at hERα (setting [3]) were more than 10000 nM, 1250 nM and more than 10000 nM, respectively.

For `O=C1CCC2(Cc3ccccc3)Cc3cc(O)ccc3C2=C1c1ccc(O)cc1` (stereo not shown) [CMP6, 9a-benzyl-7-hydroxy-4-(4-hy-droxyphenyl)-1,2,9,9a-tetra-hydro-3H-flour-en-3-one], the figures for the IC50 on GST-ERα wt-LBD, on hERβ and at hERα were 1370 nM, 96 nM and 223 nM, respectively.

Turning to `CCCCC1=C2c3ccc(O)cc3CC2(Cc2ccccc2)CCC1=O` (stereo not shown) [CMP7, 9a-benzyl-4-butyl-7-hy-droxy-1,2,9,9a-tetra-hydro-3H-fluor-en-3-one], the concentration for half-maximal inhibition (IC50) at GST-ERα wt-LBD (setting [2]) was determined as 1310 nM; on hERβ it was 307 nM; at hERα (setting [3]), 259 nM.

With `O=C1CCC2(Cc3ccc(Cl)cc3)Cc3cc(O)ccc3C2=C1c1ccc(OCCN2CCCCC2)cc1` (stereo not shown) [CMP8, 9a-(4-chlorobenzyl)-7-hy-droxy-4-{4-[2-(1-pipe-ridinyl)-eth-oxy]phenyl}-1,2,9,9a-tetra-hydro-3H-fluor-en-3-one], the concentration for half-maximal inhibition (IC50) at GST-ERα wt-LBD (setting [2]) came to 4440 nM; on hERβ, 2230 nM; on hERα (setting [3]), 1080 nM.

As to `O=C1CCC2(Cc3ccccc3)Cc3c(ccc4[nH]ncc34)C2=C1c1ccc(OCCN2CCCCC2)cc1` (stereo not shown) [CMP9, 9a-benzyl-6-{4-[2-(1-pipe-ridinyl)eth-oxy]phenyl}-8,9,9a,10-tetra-hydroindeno[2,1-e]in-dazol-7(3H)-one hydrotrifluoroacetae salt], at hERβ, the concentration for half-maximal inhibition (IC50) was determined as 125 nM.

As for `O=C1CCC2(Cc3ccccc3)Cc3cc(O)ccc3C2=C1c1ccc(OCCN2CCCCC2)cc1` (stereo not shown) [CMP10, 9a-benzyl-7-hy-droxy-4-{4-[2-(1-pipe-ridinyl)-eth-oxy]phenyl}-1,2,9,9a-tetra-hydro-3H-fluor-en-3-one], the IC50 came to 1270 nM at GST-ERα wt-LBD, 184 nM at hERβ and 375 nM on hERα.

At GST-ERα wt-LBD, `O=C1CCC2(Cc3ccccc3)Cc3cc(O)ccc3C2=C1c1ccc(OCCN2CCOCC2)cc1` (stereo not shown) [CMP11, 9a-benzyl-7-hy-droxy-4-{4-[2-(4-mor-pholinyl)-eth-oxy]phenyl}-1,2,9,9a-tetra-hydro-3H-fluor-en-3-one] showed an IC50 of 2310 nM.

Consider `CN(C)CCOc1ccc(C2=C3c4ccc(O)cc4CC3(Cc3ccccc3)CCC2=O)cc1` (stereo not shown) [CMP12, 9a-benzyl-4-{4-[2-(di-methylamino)ethoxy]phe-nyl}-7-hydroxy-1,2,9,9a-tetra-hydro-3H-fluor-en-3-one], for which, on GST-ERα wt-LBD (setting [2]), the IC50 worked out at 4170 nM.

`O=C1CCC2(Cc3ccccc3)Cc3cc(O)ccc3C2=C1c1ccccn1` (stereo not shown) [CMP13, 9a-benzyl-7-hydroxy-4-py-ridin-2-yl-1,2,9,9a-tetra-hydro-3H-fluor-en-3-one]: the IC50 on GST-ERα wt-LBD (setting [2]) is more than 3600 nM.

As to `O=C1CCC2(Cc3ccccc3)Cc3cc(O)ccc3C2=C1c1cccnc1` (stereo not shown) [CMP14, 9a-benzyl-7-hydroxy-4-py-ridin-3-yl-1,2,9,9a-tetra-hydro-3H-fluor-en-3-one], at GST-ERα wt-LBD (setting [2]), the IC50 is more than 3600 nM.

With `O=C1CCC2(Cc3ccccc3)Cc3cc(O)ccc3C2=C1c1ccncc1` (stereo not shown) [CMP15, 9a-benzyl-7-hydroxy-4-py-ridin-4-yl-1,2,9,9a-tetra-hydro-3H-fluor-en-3-one], the IC50 came to 725 nM on GST-ERα wt-LBD (setting [2]), 558 nM on hERβ and 1180 nM at hERα (setting [3]).

On to `CC1=C2c3ccc(O)cc3CC2(Cc2ccc(Cl)cc2)CCC1=O` (stereo not shown) [CMP17, 9a-(4-chlorobenzyl)-7-hy-droxy-4-methyl-1,2,9,9a-tetra-hydro-3%{H}-fluor-en-3-one], for which the IC50 at GST-ERα wt-LBD (setting [2]) was determined as 6830 nM.

As to `CC1=C2c3cc(Br)c(O)c(Br)c3CC2(Cc2ccccc2)CCC1=O` (stereo not shown) [CMP24, 9a-benzyl-6,8-di-bromo-7-hydroxy-4-meth-yl-1,2,9,9a-tetra-hydro-3%{H}-fluor-en-3-one], the half-maximal inhibitory concentration (IC50) at GST-ERα wt-LBD (setting [2]) was more than 180000 nM.

Consider `CC1=C2c3ccc4[nH]ncc4c3CC2(Cc2ccc(F)cc2)CCC1=O` (stereo not shown) [CMP25, 6-methyl-9a-(4-fluoro-benzyl)-8,9,9a,10-tetra-hydroindeno[2,1-e]in-dazol-7(3H)-one], for which the concentration for half-maximal inhibition (IC50) on hERβ was 997 nM.

For `CC1=C2c3ccc4[nH]ncc4c3CC2(Cc2cccc(F)c2)CCC1=O` (stereo not shown) [CMP26, 6-methyl-9a-(3-fluoro-benzyl)-8,9,9a,10-tetra-hydroindeno[2,1-e]in-dazol-7(3H)-one], on hERβ, the IC50 came to 1070 nM.

On to `CC1=C2c3ccc4[nH]ncc4c3CC2(Cc2ccccc2F)CCC1=O` (stereo not shown) [CMP27, 6-methyl-9a-(2-fluoro-benzyl)-8,9,9a,10-tetra-hydroindeno[2,1-e]in-dazol-7(3H)-one], for which the figures for the half-inhibitory concentration (IC50) on hERβ and at hERα (setting [3]) were 529 nM and 4300 nM, respectively.

For the compound `CC1=C2c3ccc4nn[nH]c4c3CC2(Cc2ccccc2)CCC1=O` (stereo not shown) [CMP30, 9a-benzyl-6-methyl-8,9,9a,10-tetra-hydrofluoreno[1,2-d][1,2,3]tri-azol-7(3H)-one], the IC50 on hERβ amounted to 4190 nM.

In the case of `CC1=C2c3ccc4[nH]nnc4c3CC2(Cc2ccccc2C(F)(F)F)CCC1=O` (stereo not shown) [CMP34, 9a-[2-(tri-fluoromethyl)benzyl]-6-meth-yl-8,9,9a,10-tetra-hydrofluoreno[1,2-d][1,2,3]tri-azol-7(3H)-one], the 50% inhibitory concentration (IC50) at hERβ and on hERα (setting [3]) was more than 10000 nM each time.

As a reminder, the IC50 is the concentration that inhibits the measured activity by half.
